Reference: US20120142766A1, “SUBSTITUTED 1,3-DIOXANES AND THEIR USES” (EVOLVA SA, priority 2007, published 2012)

System: arterial thrombosis in a mouse model
Assay: Arterial thrombosis mouse model (FeCl3 on femoral artery)
Format: in vivo
Conditions: i.v.
Method: The solutions are diluted 3.3-fold in saline and 100 μl/25 g is injected. Thus, the above-mentioned doses of 100 and 300 mg/kg of compound correspond to final doses of 30 and 100 mg/kg.
During the experiments, a soluble salt of the drug is provided (potassium salt of compound C), diluted in saline. Of this formulation, 100 μl/25 g is injected i.v. in the tail vein (dose of 100 mg/kg).
Solutions are injected (100 μl/25 g body weight) i.v. in the tail vein over 2 min to obtain doses of each compound of 30 mg/kg and 100 mg/kg. Aspirin is given the same way at a dose of 200 mg/kg. Clopidogrel is administered by oral gavage at a dose of 20 mg/kg at 6-7 hours prior to the experiment. The animals assigned to each group are matched for body weight. Mice are typically 8-10 weeks old males and are in a 100% Swiss genetic background.
The flow in each image is expressed as a percentage of that at the contralateral side, and data are averaged for all 120 images to determine total flow. The same analysis is performed for 10 min intervals (which gives essentially the same information as the area under the curve). […] Flow before treatment is recorded as 100%, and that in occluded arteries as 0%. At the end of the experiment, blood is collected on 0.01M citrate by heart puncture for determination of blood cell counts. Plasma is prepared by centrifugation and stored at −20° C. for determination of drug levels.
Statistical analysis for differences between two groups is performed by non-parametric Student t-test. Occlusion times >30 min were considered equal to 30 min for statistical analysis. Significance is set at p<0.05.

O=C(O)CC/C=C\C[C@@H]1CO[C@H](c2ccccc2Cl)O[C@@H]1c1ccccc1O [Compound C, (Z)-6-((2S,4S,5R)-2-(2-chlorophenyl)-4-(2-hydroxyphenyl)-1,3-dioxan-5-yl)hex-4-enoic acid]
Occlusion time (30 mg/kg in vehicle): slightly prolongs the occlusion time as compared to aspirin (p=0.024), but has no effect as compared to vehicle
Total blood flow (30 mg/kg in vehicle): no effect on total blood flow
Occlusion time (100 mg/kg in vehicle): prolongs the occlusion time versus aspirin (p=0.0002), but not versus vehicle only (p=0.095)
Total blood flow (100 mg/kg in vehicle): slightly improved total blood flow as compared to aspirin (p=0.055), but not as compared to vehicle (p=0.45)
Blood flow in the time window 0-10 min (100 mg/kg in vehicle, 0-10 min): significantly higher flow as compared to aspirin (p=0.0002) but not as compared to vehicle only (p=0.11)
